{"source": "patent US8257739B2", "about": "“Pharmaceutical compositions of semi-ordered drugs and polymers” (Bend Research, Inc., priority 2002, dated 2012)", "key": {"[1]": {"experiment": "In vitro dissolution test of Drug 1 compositions in MFDS solution (concentration enhancement)", "format": "physicochemical", "settings": "for AUC90 / Cmax9O: Drug 1, MFDS pH 6.5, 37° C., first 90 min; for AUC / Drug 1 Concentration: MFDS pH 6.5, 37° C.", "excerpt": "In conducting such a dissolution test, the amount of test composition used is an amount such that if all of the drug dissolved, the drug concentration would be at least 2-fold to 100-fold or more than that of the equilibrium concentration of the drug. The concentration of dissolved drug is typically measured as a function of time by sampling the test medium and plotting drug concentration in the test medium vs. time so that the MDC and/or AUC can be ascertained.\nTo avoid drug particulates greater than about 0.4 to 1.0 μm in size being present in the solution assayed, which would give an erroneous determination, the test solution is either filtered or centrifuged. “Dissolved drug” is typically taken as that material that either passes a 0.45 μm syringe filter or, alternatively, the material that remains in the supernatant following centrifugation. Filtration can be conducted using a 13 mm, 0.45 μm polyvinylidine difluoride syringe filter sold by Scientific Resources under the trademark TITAN®. Centrifugation is typically carried out in a polypropylene microcentrifuge tube by centrifuging at 13,000 G for 60 seconds. Other similar filtration or centrifugation methods can be employed and useful results obtained. For example, using other types of microfilters may yield values somewhat higher or lower (by about 10-40%) than that obtained with the filter specified above but will still allow identification of preferred compositions. It is recognized that this definition of “dissolved drug” encompasses not only monomeric solvated drug molecules but also a wide range of species such as polymer/drug assemblies that have submicron dimensions such as drug aggregates, aggregates of mixtures of polymer and drug, micelles, polymeric micelles, colloidal particles or nanocrystals, polymer/drug complexes, and other such drug-containing species that are present in the filtrate or supernatant in the specified dissolution test.\nFor these tests, samples containing 0.72 mg of Example 1B, 0.36 mg of either Control 1C or 1D, or 0.72 mg of Control 1E were separately added to microcentrifuge tubes. The tubes were placed in a 37° C. temperature-controlled chamber, and 1.8 mL MFDS solution at pH 6.5 was added. The contents of the tubes were quickly mixed using a vortex mixer for about 60 seconds. The tubes were then centrifuged at 13,000 G at 37° C. for 1 minute. The supernatant was sampled and diluted 1:6 (by volume) with methanol and then analyzed by high-performance liquid chromatography (HPLC). Drug 1 was analyzed by HPLC using a Waters Symmetry C18 column. The mobile phase consisted of 0.3 vol % glacial acetic acid, 0.2 vol % triethylamine in HPLC water/acetonitrile in a volume ratio of 50/50. Drug concentration was calculated by comparing UV absorbance at 260 nm to the absorbance of Drug 1 standards.\nThe contents of the tubes were then again mixed on the vortex mixer and allowed to stand undisturbed at 37° C. until the next sample was taken. Samples of the tubes were collected at 4, 10, 20, 40, 90, and 1200 minutes."}, "[2]": {"experiment": "In vivo test of Drug 1 compositions, oral powder for constitution, plasma Drug 1", "settings": "male beagle dogs, oral gavage, 10 mgA/kg Drug 1, plasma", "description": "The composition of Example 1B was used as an oral powder for constitution (OPC) for evaluating the performance of the composition in in vivo tests using male beagle dogs. The OPC was dosed as a suspension in a solution containing 0.5 wt % Methocel® (Dow Chemical Co.), and was prepared as follows. First, 5.0130 g of Methocel® was weighed out and added slowly to approximately 200 ml of water at 60° C. to form a Methocel® suspension. After all the Methocel® was added, the suspension was placed in a beaker of ice water. Next, 800 ml of chilled water was added with stirring. A 702.7 mg sample of Example 1B was weighed into a mortar. A drop of the Methocel® suspension was added to the mortar and the drug mixture was ground with a pestle. Additional Methocel® suspension was added gradually with grinding until a pourable suspension was obtained. The suspension was then transferred to a vial. The mortar and pestle were washed with the remaining Methocel® suspension. A total of 350 ml of Methocel® suspension was added to the Example 1B sample.\nSix male beagle dogs were dosed with samples of Example 1B. Sufficient amounts of the OPC were dosed such that each dog received 10 mgA/kg of Drug 1 (where “A” refers to active drug). The dogs were fed 1 can of liquid diet the day prior to the study. On the day of the study, the dogs were dosed with the OPC using a gavage tube and a syringe. Whole blood samples of 6 ml were taken from the jugular vein using a plasma vacutainer containing sodium heparin with a 20 gauge needle at 0, ½, 1, 2, 3, 4, 6, 8, and 24 hours post dosing. Samples were spun in a refrigerated (5° C.) centrifuge at 3000 rpm for 5 minutes. The resultant plasma samples were poured into 2 ml cryogenic plastic tubes and stored in a freezer (−20° C.) within ½ hour post sampling time. Samples were then analyzed for Drug 1 using an HPLC method.\nA similar method was used to dose the dogs with samples of Control 1B, Control 1C, and Control 1D. A washout period of at least 1 week was used between dosing of the various compositions."}, "[3]": {"experiment": "In vivo test of Drug 2 compositions, gelatin capsule, plasma Drug 2", "settings": "fasted male beagle dogs, one gelatin capsule, 40 mg Drug 2, plasma", "description": "The composition of Example 2 was placed in a gelatin capsule such that the capsule contained 40 mg of Drug 2. Five fasted male beagle dogs were dosed with one capsule and whole blood samples of 6 ml were taken from the jugular vein using a plasma vacutainer containing sodium heparin with a 20 gauge needle at 0, ½, 1, 1½, 2, 3, 4, 6, 8, 12, and 24 hours post dosing. Samples were spun in a refrigerated (5° C.) centrifuge at 3000 rpm for 5 minutes. Resultant plasma samples were poured into 2 ml cryogenic plastic tubes and were stored in a freezer (−20° C.) within ½ hour post sampling time. Similar tests were performed with a gelatin capsule containing 40 mg of crystalline Drug 2 (Control 2B)."}, "[4]": {"experiment": "In vitro dissolution test of Drug 2 compositions in MFDS solution (concentration enhancement)", "format": "physicochemical", "settings": "37° C.; for AUC / Drug 2 Concentration: MFDS", "description": "The concentration-enhancement provided by Example 2, Control 2B and Control 2C was determined using an in vitro dissolution test as follows. Samples containing 3.91 mg of Example 2, 0.36 mg of Control 2B, or 3.9 mg of Control 2C, were separately added to microcentrifuge tubes. The tubes were placed in a 37° C. temperature-controlled chamber, and 1.8 mL MFDS solution was added. The contents of the tubes were quickly mixed using a vortex mixer for about 60 seconds. The tubes were then centrifuged at 13,000 G at 37° C. for 1 minute. The supernatant was sampled and diluted 1:6 (by volume) with methanol and then analyzed by high-performance liquid chromatography (HPLC). Drug 2 was analyzed by HPLC using a Phenomenex ODS 20 column (250 mm×4.6mm). The mobile phase consisted of 0.02 M KH2PO4 (pH 3)/acetonitrile in a volume ratio of 60/40. Drug concentration was calculated by comparing UV absorbance at 254 nm to the absorbance of Drug 2 standards. The contents of the tubes were then again mixed on the vortex mixer and the next sample was taken. […]"}}}
{"smiles": "NC(=O)N(O)C1C=C(c2cccc(Oc3ccc(F)cc3)c2)CC1", "note": "(single isomer, unassigned; (+)) [Control 1D, (+)-N-{3-[3-(4-fluorophenoxy)phenyl]-2-cyclopenten-1-yl}-N-hydroxyurea]", "values": [{"measurement": "AUC90", "setting": "[1]", "result": 5600, "unit": "µg·min/mL"}, {"measurement": "Cmax9O", "setting": "[1]", "result": 70, "unit": "µg/mL"}, {"measurement": "AUC", "setting": "[1]; time 0 min", "result": 0, "unit": "µg·min/mL"}, {"measurement": "Drug 1 Concentration", "setting": "[1]; time 0 min", "result": 0, "unit": "µg/mL"}, {"measurement": "AUC", "setting": "[1]; time 4 min", "result": 100, "unit": "µg·min/mL"}, {"measurement": "Drug 1 Concentration", "setting": "[1]; time 4 min", "result": 50, "unit": "µg/mL"}, {"measurement": "AUC", "setting": "[1]; time 10 min", "result": 400, "unit": "µg·min/mL"}, {"measurement": "Drug 1 Concentration", "setting": "[1]; time 10 min", "result": 58, "unit": "µg/mL"}, {"measurement": "AUC", "setting": "[1]; time 20 min", "result": "1,000 min*μg/mL"}, {"measurement": "Drug 1 Concentration", "setting": "[1]; time 20 min", "result": 61, "unit": "µg/mL"}, {"measurement": "AUC", "setting": "[1]; time 40 min", "result": "2,300 min*μg/mL"}, {"measurement": "Drug 1 Concentration", "setting": "[1]; time 40 min", "result": 64, "unit": "µg/mL"}, {"measurement": "AUC", "setting": "[1]; time 90 min", "result": "5,600 min*μg/mL"}, {"measurement": "Drug 1 Concentration", "setting": "[1]; time 90 min", "result": 70, "unit": "µg/mL"}, {"measurement": "AUC", "setting": "[1]; time 1200 min", "result": "77,800 min*μg/mL"}, {"measurement": "Drug 1 Concentration", "setting": "[1]; time 1200 min", "result": 60, "unit": "µg/mL"}, {"measurement": "AUC(0-inf)", "setting": "[2]", "result": "20,700 ng/ml * hr"}, {"measurement": "Cmax", "setting": "[2]", "result": "3,622 ng/ml"}]}
{"smiles": "NC(=O)N(O)C1C=C(c2cccc(Oc3ccc(F)cc3)c2)CC1", "note": "(single isomer, unassigned; (+)) [Control 1C, (+)-N-{3-[3-(4-fluorophenoxy)phenyl]-2-cyclopenten-1-yl}-N-hydroxyurea]", "values": [{"measurement": "AUC90", "setting": "[1]", "result": 2200, "unit": "µg·min/mL"}, {"measurement": "Cmax9O", "setting": "[1]", "result": 32, "unit": "µg/mL"}, {"measurement": "AUC", "setting": "[1]; time 0 min", "result": 0, "unit": "µg·min/mL"}, {"measurement": "Drug 1 Concentration", "setting": "[1]; time 0 min", "result": 0, "unit": "µg/mL"}, {"measurement": "AUC", "setting": "[1]; time 4 min", "result": 0, "unit": "µg·min/mL"}, {"measurement": "Drug 1 Concentration", "setting": "[1]; time 4 min", "result": 9, "unit": "µg/mL"}, {"measurement": "AUC", "setting": "[1]; time 10 min", "result": 100, "unit": "µg·min/mL"}, {"measurement": "Drug 1 Concentration", "setting": "[1]; time 10 min", "result": 15, "unit": "µg/mL"}, {"measurement": "AUC", "setting": "[1]; time 20 min", "result": 300, "unit": "µg·min/mL"}, {"measurement": "Drug 1 Concentration", "setting": "[1]; time 20 min", "result": 21, "unit": "µg/mL"}, {"measurement": "AUC", "setting": "[1]; time 40 min", "result": 800, "unit": "µg·min/mL"}, {"measurement": "Drug 1 Concentration", "setting": "[1]; time 40 min", "result": 27, "unit": "µg/mL"}, {"measurement": "AUC", "setting": "[1]; time 90 min", "result": "2,200 min*μg/mL"}, {"measurement": "Drug 1 Concentration", "setting": "[1]; time 90 min", "result": 32, "unit": "µg/mL"}, {"measurement": "AUC", "setting": "[1]; time 1200 min", "result": "43,300 min*μg/mL"}, {"measurement": "Drug 1 Concentration", "setting": "[1]; time 1200 min", "result": 42, "unit": "µg/mL"}, {"measurement": "Cmax", "setting": "[2]", "result": "1,650 ng/ml"}, {"measurement": "AUC(0-inf)", "setting": "[2]; male, beagle, dog, plasma, po, 10 mgA/kg, read-out: AUC(0-inf)", "result": 11100, "unit": "ng·h/mL"}]}
{"smiles": "O=C1Cc2cc(CCN3CCN(c4nsc5ccccc45)CC3)c(Cl)cc2N1", "note": "[Control 2B]", "values": [{"measurement": "AUC(0-inf)", "setting": "[3]", "result": 1050, "unit": "ng·h/mL"}, {"measurement": "Cmax", "setting": "[3]", "result": 196, "unit": "ng/mL"}, {"measurement": "AUC90", "setting": "[4]; Drug 2, MFDS, first 90 min", "result": "1,600 min * μg/mL"}, {"measurement": "Cmax90", "setting": "[4]; Drug 2, MFDS, first 90 min", "result": 23, "unit": "µg/mL"}, {"measurement": "AUC", "setting": "[4]; time 4 min", "result": 0, "unit": "µg·min/mL"}, {"measurement": "Drug 2 Concentration", "setting": "[4]; time 4 min", "result": 14, "unit": "µg/mL"}, {"measurement": "AUC", "setting": "[4]; time 10 min", "result": 100, "unit": "µg·min/mL"}, {"measurement": "Drug 2 Concentration", "setting": "[4]; time 10 min", "result": 17, "unit": "µg/mL"}, {"measurement": "AUC", "setting": "[4]; time 20 min", "result": 300, "unit": "µg·min/mL"}, {"measurement": "Drug 2 Concentration", "setting": "[4]; time 20 min", "result": 23, "unit": "µg/mL"}, {"measurement": "AUC", "setting": "[4]; time 40 min", "result": 700, "unit": "µg·min/mL"}, {"measurement": "Drug 2 Concentration", "setting": "[4]; time 40 min", "result": 19, "unit": "µg/mL"}, {"measurement": "AUC", "setting": "[4]; time 90 min", "result": "1,600 min*μg/mL"}, {"measurement": "Drug 2 Concentration", "setting": "[4]; time 90 min", "result": 15, "unit": "µg/mL"}, {"measurement": "AUC", "setting": "[4]; time 1200 min", "result": "14,900 min*μg/mL"}, {"measurement": "Drug 2 Concentration", "setting": "[4]; time 1200 min", "result": 9, "unit": "µg/mL"}]}
